# Columns and labels:
# [1] = test system: human neuroblastoma cell line SH-SY5Y; assay: Neuroprotection against H2O2 oxidative stress, MTT assay; assay type: cell-based; conditions: 1 hour preincubation at 0.03-40 μM, then H2O2 15 μM 30 minutes
# Description: The objective of the study was to test the possible synergistic effect of the BN201-monomethylfumarate salt in a neuroprotective assay. Thus, BN201-monomethylfumarate salt obtained as indicated in example 5, was tested for its ability to protect the human neuroblastoma cell line SH-SY5Y against death induced by oxidative stress (i.e., hydrogen peroxide (H202)) using an MTT (3-(4,5-dimethylthiazol-2-yl)-2,5-diphenyltetrazolium bromide) cell proliferation assay.
# SH-SY5Y cells were cultivated in 50% Eagle's minimum essential medium (EMEM), 50% Ham's F12 Nutrient Mixture, 10% fetal bovine serum (FBS), 2 mM L-Glu, and 1% penicillin/streptomycin. All of the cell cultures were maintained in a humidified incubator at 5% CO2 and at 37° C. SH-SY5Y cells were preincubated for 1 hour with BN201 alone, monomethyl fumarate alone, or BN201-monomethylfumarate salt at various concentrations (n=5; concentrations: 0.03 μM, 0.1 μM, 0.3 μM, 0.5 μM, 1 μM, 3 μM, 5 μM, 10 μM, 20 μM, 40 μM) and then H2O2 (15 μM) was added to induce stress. Preincubation with sodium pyruvate (10 mM) was used as a positive control. After 30 minutes of H2O2 incubation, the medium was changed and thiazolyl blue tetrazolium bromide (MTT; Sigma Aldrich; stock concentration 10 mg/ml) was added to each well at the final concentration of 0.5 mg/ml. After 2 hours of MTT incubation the cell medium was removed, and cells were resuspended in pure dimethyl sulfoxide (DMSO). Cell viability was determined by reading the absorbance at 570 nm. Each experiment was performed in quintuplicate.
# [2] = test system: experimental autoimmune encephalomyelitis (EAE) mouse model; assay: Study EAE-C06: dose response of BN201, clinical score in EAE mouse model; assay type: in vivo; conditions: almost all days of observation/treatment (Day 2 to day 30)
# Description: A third experiment (Study EAE-C06) to test dose response of BN201 was then performed using the same mouse model.
# Study EAE-C06: five different concentrations of BN201: 12.5 mg/kg, 25 mg/kg, 50 mg/kg, 100 mg/kg, and 150 mg/kg. Also sham, pathological control and FTY720 (2 mg/kg) comparator groups were included in the experiment. All groups were administered daily.
# (§1) Clinical scores were assigned to assess disease severity using the following scale: 0=normal; 0.5=Partial tail paralysis; 1=Complete tail paralysis; 1.5=Tail paralysis and loss of righting reflex; 2=Partial hind limb paralysis/paralysis of one limb; 2.5=One limb paralysis and partial loss of activity of one other limb; 3=Bilateral hind limb paralysis; 4=Moribund; 5=exitus.
# Therapeutic treatment was initiated on day 12 once each mouse started showing complete tail paralysis (Score 1).
# Data are depicted in FIG. 1 (C), wherein the clinical score for each of the tested groups is plotted per day after disease onset.
# [3] = test system: experimental autoimmune encephalomyelitis (EAE) mouse model; assay: Study EAE-C05: clinical score in EAE mouse model with active comparators; assay type: in vivo; conditions: 100 mg/kg daily, after 5 days of treatment
# Description: A second experiment (Study EAE-C05) was then performed using the same mouse model.
# Study EAE-C05: In addition to two dose levels of BN201 and a placebo-treated group (pathological control group), the study design introduced two active comparators, dimethyl fumarate (DMF) and fingolimod (FTY720), and a sham group (group in which animals were manipulated as the pathological group but without MOG injection). All groups were administered daily. • sham control non-diseased placebo-treated animals (healthy control group); • EAE-affected placebo-treated animals (pathological control group); • EAE-affected animals treated orally with 15 mg/kg of DMF; • EAE-affected animals treated with 2 mg/kg of FTY720; • EAE-affected animals treated with BN201 at 50 or 100 mg/kg.
# as §1
# Therapeutic treatment was initiated on day 12 or 13, once each mouse started showing complete tail paralysis (Score 1).
# [4] = test system: EAE in C57BL6 mice immunized with MOG35-55; assay: Example 3: BN201 and DMF combination, progression of chronic EAE; assay type: in vivo, mouse; conditions: BN201 25 mg/kg i.p. alone (suboptimal), once a day six days per week from day 15
# Description: Effect in the animal model of MS (i.e., EAE in C57BL6 mice immunized with MOG35-55), similar to Example 2.
# Starting on day 15, mice were administered: • dimethyl fumarate (DMF) (group A, 10 mice), • BN201 (group B, 10 mice) • a combination thereof (group C, 10 mice) once a day for six days per week at suboptimal dosages (10 mg/kg for DMF, 25 mg/kg for BN201).
# DMF was administered orally with a rigid cannula in a saline vehicle at a volume of 10 mL/kg, while BN201 was administered via i.p. injection in a saline vehicle at a volume of 5 mL/kg. Control mice received vehicle only via both oral and i.p. injection (group D, 10 mice) or nothing at all (group E, 2 mice).
# The objective of the study was to evaluate the efficacy and safety of combination therapy with suboptimal doses of BN201 (25 mg/kg) and dimethyl-fumarate (DMF) (10 mg/kg) in the progression of chronic EAE in mice.
# During a one week acclimation period starting on day −7, mice were distributed based on body weight stratification into different experimental groups. On day 0, mice were immunized subcutaneously in both hind pads with 150 μg of MOG peptide 35-55 (Spikem, Firenze) emulsified with 50 μg of Mycobacterium tuberculosis (H37Ra strain; Difco, Detroit, MI) in incomplete Freund's adjuvant (IFA). […]
compound,measurement,setting,value
"CC(C)CN(CC(=O)N(CCCN1CCCC1=O)CC(N)=O)C(=O)CNCCc1ccccc1F [BN201, [N-(2-(2′-Fluorophenyl)ethyl)glycyl]-[N-(2-methylpropyl)glycyl]-N-[3-(2′-oxopyrrolidinyl)-propyl]glycinamide]",cell viability as a percentage compared to the control (protection from death induced by oxidative stress),[1],partially rescued neurons from death induced by oxidative stress
same,clinical score,[2]; 50 mg/kg daily,significant amelioration of the clinical score
same,clinical score,[2]; 100 mg/kg daily,significant amelioration of the clinical score
same,clinical score compared to pathological control group,[3],significantly lower
same,course of EAE (clinical score) versus placebo,[4],suffered EAE similar to those mice treated with placebo
